Reference: US20060013780A1, “N,N'-dialkyl derivatives of polyhydroxyalkyl alkylenediamines” (priority 2004, published 2006)

How the values were obtained:
[1] = Dynamic surface tension, maximum bubble pressure method; assay type: physicochemical; details: for DST (0.1 WT %, mN/m) 0.1 b/s / DST (0.1 WT %, mN/m) 10 b/s: 0.1 wt % in distilled and deionized water; for DST (0.1 WT %, mN/m) 0.1 b/s / DST (0.5 WT %, mN/m) 0.1 b/s: 0.1 bubbles/sec; for DST (0.1 WT %, mN/m) 10 b/s / DST (0.5 WT %, mN/m) 10 b/s: 10 bubbles/sec; for DST (0.5 WT %, mN/m) 0.1 b/s / DST (0.5 WT %, mN/m) 10 b/s: 0.5 wt % in distilled and deionized water
Experimental: Solutions in distilled and deionized water of the surfactants of the invention were prepared. […] In a practical sense, high surface creation rates refer to rapid processes such as a spray or roller-applied coating, a high speed printing operation, or the rapid application of an agricultural product or a cleaner.

[2] = Cleaning performance, ASTM D4488-95, reflectance of white vinyl composition tile; details: 0.1% (wt %) surfactant
Excerpt: Although dynamic and equilibrium surface tension as well as foam influence the cleaning ability of a surfactant, other factors also affect cleaning performance. Thus one good way to determine the cleaning ability of a surfactant is to apply a soil to a substrate, clean that substrate with the surfactant of interest and some benchmark surfactants, and compare relative cleaning efficacies in terms of percent soil removal. One method for conducting such testing is described in ASTM D4488-95, “Standard Guide for Testing Cleaning Performance of Products Intended for Use on Resilient Flooring and Washable Walls.” This method was followed according to the particulate and oily soil/vinyl tiles test methodology, with cleaning performance being evaluated by reading average reflectance values (5 readings/tile) of a white vinyl composition tile before and after cleaning (Table 6). The higher the reflectance value the better the cleaning ability of the surfactant.
The cleaning performance of surfactants according to the invention was compared side by side with that of two benchmark surfactants, Neodol 23-6.5 (available from Shell Chemical of Houston, Tex.) and AG 6202 (available from Akzo Nobel of McCook, Ill.), an alcohol ethoxylate and an alkylpolyglucoside surfactant, respectively.

[3] = Ross-Miles foam test (modified, ASTM D1173-53); assay type: physicochemical; details: surfactant in water; 0.01 wt % and 0.1 wt %, table does not say which
[4] = Equilibrium surface tension, Kruss K-12 tensiometer with platinum Wilhelmy plate; assay type: physicochemical; details: 25±1° C.; for EST (0.01 WT %, mN/m): 0.01 wt % in water; for EST (0.1 WT %, mN/m): 0.1 wt % in water; for EST (1.0 WT %, mN/m): 1.0 wt % in water
Experimental: Equilibrium surface tensions were determined using a Kruss K-12 tensiometer with a platinum Wilhelmy plate, maintaining the temperature at 25±1° C. by means of a constant temperature circulating bath.

[5] = Aqueous solubility comparison; details: in water
Experimental: Comparison of the aqueous solubilities of several N,N′-dialkyl-N,N′-bis(1-deoxyglucityl)ethylenediamines was performed, with the results as follows:
The ratios of compounds are on a molar basis.

| Compound | DST (0.1 WT %, mN/m) 0.1 b/s [1] [mN/m] | DST (0.1 WT %, mN/m) 10 b/s [1] [mN/m] | DST (0.5 WT %, mN/m) 0.1 b/s [1] [mN/m] | DST (0.5 WT %, mN/m) 10 b/s [1] [mN/m] | dynamic surface tension reduction in words ([1]; Table 4 data, strong at low bubble rates) | % SOIL REMOVAL [2] [%] | Ross Miles Final Foam (cm) [3] [cm] | Ross Miles Initial Foam (cm) [3] [cm] | EST (0.01 WT %, mN/m) [4] [mN/m] | EST (0.1 WT %, mN/m) [4] [mN/m] | EST (1.0 WT %, mN/m) [4] | aqueous solubility in words [5] |
| --- | --- | --- | --- | --- | --- | --- | --- | --- | --- | --- | --- | --- |
| CCCCN(CCN(CCCC)C[C@H](O)[C@@H](O)[C@H](O)[C@H](O)CO)C[C@H](O)[C@@H](O)[C@H](O)[C@H](O)CO [DBDGEDA, N,N′-dibutyl-N,N′-bis(1-deoxyglucityl)-1,2-diaminoethane] | 63 | 67 | 56 | 47 | moderate to low | 45 | 0.5 | 1.8 | 62 | 50 | 47 mN/m | – |
| CCCCCCN(CCN(CCCCCC)C[C@H](O)[C@@H](O)[C@H](O)[C@H](O)CO)C[C@H](O)[C@@H](O)[C@H](O)[C@H](O)CO [DHDGEDA, N,N′-dihexyl-N,N′-bis(1-deoxyglucityl)-1,2-diaminoethane] | 37 | 51 | 30 | 32 | – | 67 | 1.5 | 3.6 | 57 | 33 | 30 mN/m | extreme insolubility |
| CCCCNC[C@H](O)[C@@H](O)[C@H](O)[C@H](O)CO [N-Butylglucamine] | 71 | 72 | 70 | 71 | – | – | 0.3 | 2.5 | – | – | ≧50 mN/m | – |
| CCCCCCNC[C@H](O)[C@@H](O)[C@H](O)[C@H](O)CO [N-Hexylglucamine] | 68 | 70 | 55 | 57 | – | – | 1.0 | 2.0 | 64 | 60 | 52 mN/m | – |
| CCCCCCCCNC[C@H](O)[C@@H](O)[C@H](O)[C@H](O)CO [N-Octylglucamine] | 54 | 65 | 48 | 62 | – | – | 0.3 | 2.0 | 55 | 35 | 35 mN/m | – |
| N,N′-dioctyl-N,N′-bis(1-deoxyglucityl)ethylenediamine [DODGEDA] | – | – | – | – | – | 48 | – | – | – | – | – | – |
